The assay deals with PANC1 cells. Put plainly: Colony formation / growth, PANC1. In kind it is cell-based, human. As to conditions: data not shown.

Molecules are shown by their SMILES.

`Nc1ncnc2nc(-c3ccc(N4CCOCC4)nc3)cc(-c3cccc(Br)c3)c12` [ABT-702]: the “growth impairment of PANC1 cells” value is recorded as “did not observe any growth impairment”.

The values are drawn from publication PMC4150021 (Nature, 2014).
